{
  "source": "paper PMC9184653",
  "about": "“LDL receptor-related protein 1 (LRP1), a novel target for opening the blood-labyrinth barrier (BLB)” (Signal Transduction and Targeted Therapy, 2022)",
  "key": {"[1]": {"target": "T1, LRP1 (Mus musculus, UniProt Q91ZX7)", "T1 construct": "from tissue; host or cells: cochleae of C57BL/6J mice", "T1 sequence (Q91ZX7 20-4545)": "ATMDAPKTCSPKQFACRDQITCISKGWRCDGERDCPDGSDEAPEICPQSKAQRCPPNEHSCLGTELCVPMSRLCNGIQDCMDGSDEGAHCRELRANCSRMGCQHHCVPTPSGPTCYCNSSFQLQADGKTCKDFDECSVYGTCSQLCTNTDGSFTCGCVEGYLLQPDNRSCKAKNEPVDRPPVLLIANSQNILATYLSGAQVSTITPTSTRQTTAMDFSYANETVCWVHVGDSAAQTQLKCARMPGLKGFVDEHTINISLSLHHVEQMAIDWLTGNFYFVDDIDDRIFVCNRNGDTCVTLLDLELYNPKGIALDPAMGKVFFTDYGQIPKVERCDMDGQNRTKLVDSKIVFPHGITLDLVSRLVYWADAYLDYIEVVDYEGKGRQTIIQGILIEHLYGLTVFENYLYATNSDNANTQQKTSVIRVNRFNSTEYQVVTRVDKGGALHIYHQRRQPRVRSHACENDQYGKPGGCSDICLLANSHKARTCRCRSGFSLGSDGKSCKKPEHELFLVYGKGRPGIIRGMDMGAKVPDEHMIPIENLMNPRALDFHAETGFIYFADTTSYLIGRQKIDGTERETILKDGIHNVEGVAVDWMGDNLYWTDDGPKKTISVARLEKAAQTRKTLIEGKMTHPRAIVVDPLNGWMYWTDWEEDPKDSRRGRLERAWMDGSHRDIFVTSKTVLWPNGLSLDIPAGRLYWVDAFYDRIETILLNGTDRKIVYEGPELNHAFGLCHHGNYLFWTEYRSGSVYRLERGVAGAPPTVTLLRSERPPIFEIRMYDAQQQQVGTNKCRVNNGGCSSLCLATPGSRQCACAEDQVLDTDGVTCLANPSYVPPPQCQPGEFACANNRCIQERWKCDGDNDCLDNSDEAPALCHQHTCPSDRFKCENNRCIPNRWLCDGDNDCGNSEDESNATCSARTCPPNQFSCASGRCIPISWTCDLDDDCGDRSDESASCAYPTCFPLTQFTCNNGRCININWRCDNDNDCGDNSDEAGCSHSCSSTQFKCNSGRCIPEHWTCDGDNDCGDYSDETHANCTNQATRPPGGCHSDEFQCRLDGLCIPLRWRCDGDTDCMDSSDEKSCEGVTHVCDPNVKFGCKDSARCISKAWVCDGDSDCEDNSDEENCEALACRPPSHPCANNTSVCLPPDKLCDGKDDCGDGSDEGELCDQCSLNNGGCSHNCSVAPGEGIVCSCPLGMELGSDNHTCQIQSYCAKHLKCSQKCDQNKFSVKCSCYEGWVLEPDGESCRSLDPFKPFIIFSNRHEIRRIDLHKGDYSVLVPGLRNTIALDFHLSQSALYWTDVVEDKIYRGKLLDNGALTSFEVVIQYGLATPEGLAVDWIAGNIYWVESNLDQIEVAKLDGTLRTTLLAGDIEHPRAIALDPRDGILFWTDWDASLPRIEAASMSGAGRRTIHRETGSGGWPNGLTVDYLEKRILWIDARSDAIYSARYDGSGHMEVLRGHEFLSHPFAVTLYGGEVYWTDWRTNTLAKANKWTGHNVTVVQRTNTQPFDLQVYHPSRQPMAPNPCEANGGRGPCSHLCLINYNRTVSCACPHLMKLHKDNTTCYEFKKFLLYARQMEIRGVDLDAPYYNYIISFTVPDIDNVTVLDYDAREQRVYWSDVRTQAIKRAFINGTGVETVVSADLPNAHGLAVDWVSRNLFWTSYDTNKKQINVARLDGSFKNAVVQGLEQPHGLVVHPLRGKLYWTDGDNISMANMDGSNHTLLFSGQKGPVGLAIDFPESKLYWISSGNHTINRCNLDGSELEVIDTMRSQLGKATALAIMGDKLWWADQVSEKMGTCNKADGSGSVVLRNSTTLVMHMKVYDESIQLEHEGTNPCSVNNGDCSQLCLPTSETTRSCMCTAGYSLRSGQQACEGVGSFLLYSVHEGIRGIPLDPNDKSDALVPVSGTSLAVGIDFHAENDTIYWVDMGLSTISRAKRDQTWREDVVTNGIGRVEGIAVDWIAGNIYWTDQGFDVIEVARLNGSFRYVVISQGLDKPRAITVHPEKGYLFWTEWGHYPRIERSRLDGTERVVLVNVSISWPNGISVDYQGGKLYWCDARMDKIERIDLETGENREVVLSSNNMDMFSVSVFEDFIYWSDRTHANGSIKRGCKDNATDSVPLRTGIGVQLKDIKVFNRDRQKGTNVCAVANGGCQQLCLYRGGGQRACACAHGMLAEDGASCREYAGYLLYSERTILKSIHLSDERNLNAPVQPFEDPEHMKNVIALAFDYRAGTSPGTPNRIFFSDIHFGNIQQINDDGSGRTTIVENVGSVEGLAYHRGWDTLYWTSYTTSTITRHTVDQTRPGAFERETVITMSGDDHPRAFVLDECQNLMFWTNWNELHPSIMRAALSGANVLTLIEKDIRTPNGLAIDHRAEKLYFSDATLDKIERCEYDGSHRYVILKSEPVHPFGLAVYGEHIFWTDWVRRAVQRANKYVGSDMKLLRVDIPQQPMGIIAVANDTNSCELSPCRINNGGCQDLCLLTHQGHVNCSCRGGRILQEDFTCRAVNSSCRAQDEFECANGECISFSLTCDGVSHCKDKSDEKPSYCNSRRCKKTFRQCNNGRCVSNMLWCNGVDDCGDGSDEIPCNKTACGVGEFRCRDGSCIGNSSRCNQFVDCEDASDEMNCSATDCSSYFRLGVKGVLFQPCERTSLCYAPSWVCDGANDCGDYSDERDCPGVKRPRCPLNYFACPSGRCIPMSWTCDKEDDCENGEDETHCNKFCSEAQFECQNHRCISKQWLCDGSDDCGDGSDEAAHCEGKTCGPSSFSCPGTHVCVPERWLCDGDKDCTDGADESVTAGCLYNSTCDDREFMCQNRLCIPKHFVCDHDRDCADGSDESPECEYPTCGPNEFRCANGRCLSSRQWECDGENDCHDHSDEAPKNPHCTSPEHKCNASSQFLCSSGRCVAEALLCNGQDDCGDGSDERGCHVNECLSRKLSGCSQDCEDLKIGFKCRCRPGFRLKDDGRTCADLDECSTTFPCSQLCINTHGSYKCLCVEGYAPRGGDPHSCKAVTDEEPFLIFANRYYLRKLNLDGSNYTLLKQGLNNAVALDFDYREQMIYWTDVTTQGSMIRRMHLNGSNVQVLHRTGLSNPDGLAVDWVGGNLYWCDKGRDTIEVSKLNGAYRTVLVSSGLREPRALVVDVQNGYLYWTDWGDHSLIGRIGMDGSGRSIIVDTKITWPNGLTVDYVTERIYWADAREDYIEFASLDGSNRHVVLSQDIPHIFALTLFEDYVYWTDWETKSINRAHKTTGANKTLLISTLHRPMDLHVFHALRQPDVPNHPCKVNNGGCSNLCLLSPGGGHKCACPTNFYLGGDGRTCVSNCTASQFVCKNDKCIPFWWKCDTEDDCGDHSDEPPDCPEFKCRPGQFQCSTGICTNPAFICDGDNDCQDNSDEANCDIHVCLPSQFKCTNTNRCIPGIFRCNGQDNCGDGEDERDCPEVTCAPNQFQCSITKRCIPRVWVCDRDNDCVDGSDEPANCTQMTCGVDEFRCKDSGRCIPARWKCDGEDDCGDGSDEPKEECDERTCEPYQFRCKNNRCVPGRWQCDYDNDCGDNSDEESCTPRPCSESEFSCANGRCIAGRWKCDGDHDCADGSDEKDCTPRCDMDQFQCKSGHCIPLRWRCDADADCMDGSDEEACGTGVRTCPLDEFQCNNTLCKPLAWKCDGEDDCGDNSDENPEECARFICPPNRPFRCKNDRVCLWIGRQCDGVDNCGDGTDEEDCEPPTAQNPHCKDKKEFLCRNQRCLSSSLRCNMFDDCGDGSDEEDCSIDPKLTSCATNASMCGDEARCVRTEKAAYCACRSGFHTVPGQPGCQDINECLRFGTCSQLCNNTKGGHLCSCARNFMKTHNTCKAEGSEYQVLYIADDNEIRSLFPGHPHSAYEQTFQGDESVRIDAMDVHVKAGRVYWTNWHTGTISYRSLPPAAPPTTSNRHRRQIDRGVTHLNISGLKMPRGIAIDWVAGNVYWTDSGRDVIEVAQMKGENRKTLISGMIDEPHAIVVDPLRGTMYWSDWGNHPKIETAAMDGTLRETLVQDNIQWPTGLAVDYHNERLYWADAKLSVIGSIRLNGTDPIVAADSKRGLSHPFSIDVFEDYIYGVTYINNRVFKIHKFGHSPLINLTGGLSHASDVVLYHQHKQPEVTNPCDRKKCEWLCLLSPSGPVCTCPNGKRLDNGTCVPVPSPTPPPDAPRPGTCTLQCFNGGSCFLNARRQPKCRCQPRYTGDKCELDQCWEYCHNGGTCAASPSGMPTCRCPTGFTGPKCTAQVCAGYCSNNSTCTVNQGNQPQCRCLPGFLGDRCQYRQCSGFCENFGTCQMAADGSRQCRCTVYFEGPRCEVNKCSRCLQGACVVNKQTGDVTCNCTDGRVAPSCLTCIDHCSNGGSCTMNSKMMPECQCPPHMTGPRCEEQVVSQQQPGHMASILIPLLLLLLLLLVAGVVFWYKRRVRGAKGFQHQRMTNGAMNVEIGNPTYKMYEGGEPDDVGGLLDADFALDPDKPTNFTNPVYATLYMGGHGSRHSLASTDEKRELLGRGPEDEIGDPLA", "assay": "immunofluorescence imaging of cochleae after intravenous injection (distribution, colocalization with LRP1)", "type": "in vivo", "settings": "i.v. injection", "protocol": "(§1) To classify the roles of LRP1 in the transportation of IETP2 to the inner ear, the binding affinity of IETP2 to LRP1 was first determined using biolayer interferometry (BLI, Fig. 2d). […] SV was further imaged from another view. […] The Manders’ colocalization coefficients (MCCs) of LRP1 and IETP2 in IHCs, ECs, SP cells, and SGNs were 0.71515, 0.64284, 0.56482, and 0.70552, respectively.\nFour-week-old C57BL/6J mice of either sex were harvested 50 min and 2 h post-injection. Cochleae were fixed in 4% paraformaldehyde at 4 °C for 8 h and decalcified in 4% EDTA for 4 days at room temperature (RT). Parts of the cochleae were dissected into pieces containing the basilar membrane (BM), organ of Corti (OC) and stria vascularis (SV) from the apex to the hook region and then used for whole-mount immunofluorescence. Other parts of the cochleae were dehydrated using a graded sucrose solution (15% and 30%; 3 h for each grade) at RT, embedded in optimum cutting temperature (OCT) compound for 5 h at RT, frozen for 1 h at −20 °C and sectioned with a freezing microtome (Leica CM1900) at an 8 μm thickness.\nFor whole-mount and cross-section immunofluorescence, tissues were incubated with 0.1% Triton X-100 and blocked with 10% donkey serum for 2 h at RT before the application of the primary antibodies. […]"}, "[2]": {"test_system": "C57BL/6J mice", "assay": "ototoxicity evaluation by auditory brainstem response (ABR) testing", "type": "in vivo, mouse", "settings": "6 mice, 12 ears, 7- and 14-days post-administration", "protocol": "Auditory brainstem response (ABR) testing was conducted in a standard soundproof chamber for animal use. Mice were anesthetized with a mixture of isoflurane (Keyue Life Science Co., Ltd.) and air via a respirator for animal use (Medical Supplies and Services Int., Ltd.) and an aquarium air pump (HAILEA, A00–5505). The final concentration of isoflurane was 2% at a flow rate of 1.5. Circulating heating pads were placed under the mice to maintain body temperature at 37 °C. ABRs were recorded with a Tucker Davis Technologies (TDT) RZ6 instrument, and the sound was delivered by a calibrated loudspeaker (TDT, MF1 2356).\nFor ABR testing, needle electrodes were inserted beneath the skin. The recording electrode was inserted at the vertex, the reference electrode was inserted at the pinna, and the ground electrode was inserted near the tail. The ABR stimuli were frequency-specific tone pips at frequencies from 1 kHz to 32 kHz with a duration of 5 ms (0.5 ms rise-fall delivered at 21.1/sec), and each response was amplified 10,000-fold with a filter passband of 100 Hz to 3 kHz and averaged over 1024 times. The signal started at 90 dB sound pressure level (SPL) with a step of 10 dB and decreased to 10 dB SPL at frequencies of 4, 8, 16, 24, and 32 kHz for mice. The threshold was defined as the lowest dB SPL with an identifiable and repeatable wave I for mice. […]"}, "[3]": {"target": "LRP1 (Homo sapiens, UniProt Q07954)", "assay": "biolayer interferometry (BLI) binding of IETP2 to LRP1", "settings": "kinetic analysis, read-out: dissociation constant (KD) of IETP2 binding to LRP1", "from_the_text": "Gly-Cy5.5 served as a negative control. d Kinetic analysis of IETP2 binding to LRP1. […] Scale bars: e, j, o 100 µm, y, z 50 µm, others 10 µm.)\nas §1"}, "[4]": {"test_system": "mouse cochleae", "assay": "in vivo and ex vivo fluorescence imaging of cochlear uptake", "settings": "IETP2-Cy5.5, i.v., BALB/c nude mice", "from_the_text": "To validate whether the selected IETPs could cross the BLB and to evaluate the inner ear-targeting efficacy, IETPs were covalently conjugated with the fluorescent dye Cy5.5 and intravenously injected into mice. In vivo and ex vivo fluorescence imaging of cochleae was used for evaluation. […] The IETP2 signal was visualized with in vivo fluorescence imaging (Fig. 2c). Compared to that in the brain and muscle, the signal of IETP2 detected in the cochleae was much stronger (Fig. 2c). […] Therefore, IETP2 was selected for the subsequent experiments.\nBALB/c nude mice (4 weeks old, either sex) were divided into three groups (5 mice for each group). […] After the indicated times, the animals were anesthetized with isoflurane and subjected to live animal imaging (IVIS Lumina III, Caliper LifeSciences, MA, USA). The excitation/emission filter was set at 625/700 nm, and images were taken with an interval of 20 min post-injection. To validate the uptake efficiency of different IETPs, mice were sacrificed 1 h post-injection, and the cochleae were collected and imaged. […] The time-dependent uptake of IETP2 in mouse cochleae was assessed at a series of time points (1, 1.5, 2, and 2.5 h) with 3 mice at each time point for each group. Collected images were analyzed using Living Image software (IVIS Imaging System, 4.5.5)."}, "[5]": {"test_system": "pig cochleae", "assay": "pig cochlear immunofluorescence imaging after intravenous injection", "type": "in vivo", "settings": "IETP2 labeled with 5-TAMRA or Cy5.5, earlobe vein injection, 2 h post-injection", "quoted_text": "To further test the generality of IETP2 in large mammals, IETP2 labeled with 5-TAMRA or Cy5.5 was injected into pigs via earlobe veins. Two hours post-injection, the pigs were sacrificed (Supplementary Figs. S5 and S6, representative images of three independent experiments).\nThe zoomed-in OC images in the white dotted rectangle in f.\nImages from the IETP2-5-TAMRA injection group. […] Images from the 5-TAMRA injection group. […] The setting parameters for the microscope (including the excitation intensity and emission gain) remained consistent throughout the experiments. c. […] Images of pig cochleae injected with free Cy5.5 (2 h after injection). (DAPI: blue; LRP1: green; phalloidin: magenta. Scale bars for the overview of porcine cochlear mid turn are 200 µm; others are 10 µm.)"}},
  "note": "Where no end group is shown, it is not given here.",
  "data": [
    {"compound": "CCN1\\C(=C/C=C/C=C/C2=[N+](CCCCCC(=O)O)c3ccc4c(S(=O)(=O)O)cc(S(=O)(=O)O)cc4c3C2(C)C)C(C)(C)c2c1ccc1c(S(=O)(=O)[O-])cc(S(=O)(=O)O)cc21", "note": "[Cy5.5]", "values": [
      {"measurement": "distribution in cochleae, free dye", "setting": "[1]", "result": "limited distribution inside blood vessels in the SV and SGN regions"}
    ]},
    {"compound": "TFYGGRPKRNNFLRGIRSRGD [IETP2]", "values": [
      {"measurement": "ototoxicity (ABR thresholds)", "setting": "[2]", "result": "no obvious ototoxicity"},
      {"measurement": "Kd", "setting": "[3]", "result": 738, "unit": "nM"},
      {"measurement": "signal in the cochleae compared to brain and muscle", "setting": "[4]", "result": "much stronger"},
      {"measurement": "transport into the inner ear of pigs", "setting": "[5]", "result": "could be transported into the inner ears"}
    ]}
  ]
}
